Reference: patent US8859601B2, “Substituted benzyl and phenylsulfonyl triazolones, and use thereof” (Bayer Intellectual Property GmbH, priority 2008, dated 2014)

Experiments:
human V2 receptor = molecular target: T1, human V2 receptor (Homo sapiens, UniProt P30518); assay: Cellular in vitro assay for determining the vasopressin receptor activity (aequorin luminescence, antagonism of [Arg8]-vasopressin), hV2; assay type: cell-based; settings: CHO cell line transfected with the human V2 receptor (and Gα16); agonist [Arg8]-vasopressin
T1 construct: Gα16 (possible fusion partner; the text leaves open whether it was fused or expressed separately); expressed in transfected cells; host or cells: CHO K1 (ATCC), constitutively expressing a modified aequorin and co-transfected with Gα16
Source text: (§1) B-1. Cellular In Vitro Assay for Determining the Vasopressin Receptor Activity
(§2) The identification of agonists and antagonists of the V1a and V2 vasopressin receptors from humans and rats and also the quantification of the activity of the substances described here took place using recombinant cell lines. These cells derive originally from a hamster ovary epithelial cell (Chinese Hamster Ovary, CHO K1, ATCC: American Type Culture Collection, Manassas, Va. 20108, USA). The test cell lines constitutively express a modified form of the calcium-sensitive photoprotein aequorin, which, after reconstitution with the cofactor coelenterazine, emits light when there are increases in the free calcium concentration (Rizzuto R., Simpson A. W., Brini M., Pozzan T.; Nature 358 (1992) 325-327). In addition, the cells are stably transfected with the human or rat V1a or V2 receptors. In the case of the Gs-coupling V2 receptors, the cells are stably transfected with a further gene, which codes for the promiscuous Gα16 protein (Amatruda T. T., Steele D. A., Slepak V. Z., Simon M. I., Proc. Nat. Acad. Sci. USA 88 (1991), 5587-5591), either independently or as a fusion gene. The resulting vasopressin receptor test cells react to stimulation of the recombinantly expressed vasopressin receptors by intracellular release of calcium ions, which can be quantified by the resulting aequorin luminescence using a suitable luminometer (Milligan G., Marshall F., Rees S., Trends in Pharmaco. Sci. 17 (1996) 235-237).
(§3) On the day before the assay, the cells are plated out in culture medium (DMEM, 10% FCS, 2 mM glutamine, 10 mM HEPES) in 384-well microtiter plates and kept in a cell incubator (96% humidity, 5% v/v carbon dioxide, 37° C.). On the day of the assay, the culture medium is replaced by a Tyrode solution (140 mM sodium chloride, 5 mM potassium chloride, 1 mM magnesium chloride, 2 mM calcium chloride, 20 mM glucose, 20 mM HEPES), which additionally contains the cofactor coelenterazine (50 μM), and the microtiter plate is then incubated for a further 3-4 hours. The test substances in various concentrations are placed for 10 to 20 minutes in the wells of the microtiter plate before the agonist [Arg8]-vasopressin is added, and the resulting light signal is measured immediately in the luminometer. The IC50 values are calculated using the GraphPad PRISM computer program (Version 3.02).
(§4) The table below lists representative IC50 values for the compounds of the invention on the cell line transfected with the human V1a or V2 receptor: […]

human V1a receptor = molecular target: T2, human V1a receptor (Homo sapiens, UniProt P37288); assay: Cellular in vitro assay for determining the vasopressin receptor activity (aequorin luminescence, antagonism of [Arg8]-vasopressin), hV1a; assay type: cell-based; settings: CHO cell line transfected with the human V1a receptor; agonist [Arg8]-vasopressin
T2 construct: expressed in transfected cells; host or cells: CHO K1 (ATCC), constitutively expressing a modified aequorin
Source text: as §1, §2, §3, §4

T1 sequence (P30518 whole entry, the tested form may be a part): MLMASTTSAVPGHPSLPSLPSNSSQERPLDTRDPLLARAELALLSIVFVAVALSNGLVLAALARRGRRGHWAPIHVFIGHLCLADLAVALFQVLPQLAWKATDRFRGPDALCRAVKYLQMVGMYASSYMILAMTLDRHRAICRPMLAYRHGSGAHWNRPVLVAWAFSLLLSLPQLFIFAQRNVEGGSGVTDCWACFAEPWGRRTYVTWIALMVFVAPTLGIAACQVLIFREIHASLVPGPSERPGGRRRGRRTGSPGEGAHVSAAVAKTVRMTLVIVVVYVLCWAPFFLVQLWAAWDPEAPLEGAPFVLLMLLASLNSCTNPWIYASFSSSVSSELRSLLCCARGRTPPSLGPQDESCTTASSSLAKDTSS
T2 sequence (P37288 whole entry): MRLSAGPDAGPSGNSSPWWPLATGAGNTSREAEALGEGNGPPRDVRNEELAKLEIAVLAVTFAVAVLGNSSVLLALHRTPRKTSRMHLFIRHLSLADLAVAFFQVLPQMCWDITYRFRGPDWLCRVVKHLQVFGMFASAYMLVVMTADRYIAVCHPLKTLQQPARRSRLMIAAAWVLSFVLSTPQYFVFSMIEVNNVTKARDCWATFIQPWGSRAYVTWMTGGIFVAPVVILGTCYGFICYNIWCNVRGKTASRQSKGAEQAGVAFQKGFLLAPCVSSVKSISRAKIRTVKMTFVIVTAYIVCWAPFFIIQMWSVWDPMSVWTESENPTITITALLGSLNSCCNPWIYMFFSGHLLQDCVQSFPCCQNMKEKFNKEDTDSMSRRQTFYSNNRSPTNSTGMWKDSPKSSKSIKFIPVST

**Q.** With `C=CCn1c(-c2ccc(Cl)cc2)nn(S(=O)(=O)c2ccc(C(=O)NC(C)(C)C)cc2OC)c1=O` [Example 1, N-tert-Butyl-4-{[3-(4-chlorophenyl)-5-oxo-4-prop-2-en-1-yl-4,5-dihydro-1H-1,2,4-triazol-1-yl]sulphonyl}-3-methoxybenzenecarboxamide] as the molecule, how does the IC50 (human V2 receptor) read?
**A.** Its IC50 is 0.003 µM.

**Q.** What about the IC50 (human V1a receptor) of the same molecule?
**A.** Its IC50 is 5.5 µM.

**Q.** What does the source list for `COc1cc(C(=O)NC(C)(C)C)ccc1S(=O)(=O)n1nc(-c2ccc(Cl)cc2)n(C2CC2)c1=O` [Example 2]?
**A.** IC50 (human V2 receptor): 0.003 µM; IC50 (human V1a receptor): 3.7 µM

**Q.** With `COc1cc(C(=O)NC(C)(C)C)ccc1S(=O)(=O)n1nc(OC(C)C)n(C2CC2)c1=O` [Example 3] as the molecule, how does the IC50 (human V2 receptor) read?
**A.** Its IC50 is 0.013 µM.

**Q.** What about the IC50 (human V1a receptor) of the same molecule?
**A.** Its IC50 is over 25 µM.

**Q.** `COc1cc(C(=O)NC(C)(C)C)ccc1S(=O)(=O)n1nc(N(C)C)n(C2CC2)c1=O` [Example 7] was tested. Which IC50 (human V2 receptor) did it give?
**A.** Its IC50 is 0.007 µM.

**Q.** And the IC50 (human V1a receptor)?
**A.** Its IC50 is over 25 µM.

**Q.** `COc1ccc(C(C)=O)cc1S(=O)(=O)n1nc(-c2ccc(Cl)cc2)n(C2CC2)c1=O` [Example 13] was tested. Which IC50 (human V2 receptor) did it give?
**A.** The IC50 was 0.29 µM.

**Q.** And the IC50 (human V1a receptor)?
**A.** The IC50 was 3.5 µM.

**Q.** Which results are given for `COc1cc(C(=O)NC(C)(C)C)ccc1S(=O)(=O)n1nc(-c2ccc(Cl)cc2)[nH]c1=O` [Example 14, N-tert-Butyl-4-{[3-(4-chlorophenyl)-5-oxo-4,5-dihydro-1H-1,2,4-triazol-1-yl]sulphonyl}-3-methoxybenzenecarboxamide]?
**A.** IC50 (human V2 receptor): 0.009 µM; IC50 (human V1a receptor): > 25 µM

**Q.** With `CC(C)(C)NC(=O)c1ccc(S(=O)(=O)n2nc(-c3ccc(Cl)cc3)n(C3CC3)c2=O)cc1` [Example 17, N-tert-Butyl-4-{[3-(4-chlorophenyl)-4-cyclopropyl-5-oxo-4,5-dihydro-1H-1,2,4-triazol-1-yl]sulphonyl}benzenecarboxamide] as the molecule, how does the IC50 (human V2 receptor) read?
**A.** The IC50 was 0.004 µM.

**Q.** And the IC50 (human V1a receptor)?
**A.** Its IC50 is 7.1 µM.

**Q.** Which IC50 (human V2 receptor) does the source give for `COc1cc(C(=O)NC(C)(C)C)ccc1Cn1nc(-c2ccc(Cl)cc2)n(C2CC2)c1=O` [Example 20, N-tert-Butyl-4-{[3-(4-chlorophenyl)-4-cyclopropyl-5-oxo-4,5-dihydro-1H-1,2,4-triazol-1-yl]methyl}-3-methoxybenzenecarboxamide] here?
**A.** Its IC50 is 0.004 µM.

**Q.** What about the IC50 (human V1a receptor) of the same molecule?
**A.** The IC50 was 15.2 µM.

**Q.** How did the IC50 (human V2 receptor) turn out when `COc1cc(Cn2nc(-c3ccc(Cl)cc3)n(C3CC3)c2=O)ccc1C(=O)NC(C)(C)C` [Example 22, N-tert-Butyl-4-{[3-(4-chlorophenyl)-4-cyclopropyl-5-oxo-4,5-dihydro-1H-1,2,4-triazol-1-yl]methyl}-2-methoxybenzamide] was run?
**A.** Its IC50 is 0.22 µM.

**Q.** And the IC50 (human V1a receptor)?
**A.** The IC50 was 0.87 µM.

**Q.** `CC(C)(C)NC(=O)c1ccc(Cn2nc(-c3ccc(Cl)cc3)n(C3CC3)c2=O)c(Cl)c1` [Example 27, N-tert-Butyl-3-chloro-4-{[3-(4-chlorophenyl)-4-cyclopropyl-5-oxo-4,5-dihydro-1H-1,2,4-triazol-1-yl]methyl}benzamide] was tested. Which IC50 (human V2 receptor) did it give?
**A.** The IC50 was 0.027 µM.

**Q.** What about the IC50 (human V1a receptor) of the same molecule?
**A.** The IC50 was 4.2 µM.
